Assay results from publication PMC6842385, “Identifying new topoisomerase II poison scaffolds by combining publicly available toxicity data and 2D/3D-based virtual screening” (Journal of Cheminformatics, 2019).

Tested on: T1, Top2
T1 construct: gene TOP2A; Top2 used in TopoGEN decatenation assay
Experiment: kDNA decatenation assay, agarose gel
Format: biochemical
Details: kinetoplast DNA 0.2 μg in 20 μl, 5 mM ATP, 10 mM MgCl2, 150 mM NaCl, pH 8.0, 37 °C, 30 min
Text: kDNA decatenation assay, agarose gel on Top2

Row | Compound | IC50 [µM] | IC50 (positive control) [µM]
1 | CCN(CC)CCNc1ccc2ncn3c4c(OC)ccc(OC)c4c(=O)c1c23 [compound 660839, NSC660839] | > 100 | –
2 | COc1cccc2c(N)c3cccc(C(=O)NCCN(C)C)c3nc12 [compound 691240, NSC691240] | 12.1 | –
3 | CCN(CC)CCNc1ccc2nc(C)n3c4ccc(O)cc4c(=O)c1c23 [compound 637992, NSC637992] | 3.3 | –
4 | CCN(CC)CCNc1ccc(C)c2sc3ccc(O)cc3c(=O)c12 [compound 317921, NSC317921] | 7.5 | –
5 | O=C1c2c(O)ccc(O)c2C(=O)c2c(NCCNCCO)ccc(NCCNCCO)c21 [compound 301739, mitoxantrone] | – | 3.3
